Assay results as given in US20190000905A1, “Gynostemma pentaphyllum fermented extracts comprising Saponins as an active functional food ingredient and preparation method thereof” (BTC Co., Ltd., priority 2017, published 2019).

How the values were obtained:
Assay type in all cases: cell-based
[1] = tested on: ACC; test: Effect of saponins of the extract on activity of ACC in 3T3-L1 cells (p-ACC); conditions: FIG. 1 and FIG. 2
Excerpt: (§1) The effect of the saponins of the extract according to the present disclosure on the activity of AMPK, ACC and FAS in 3T3-L1 cells is shown in FIG. 1 and FIG. 2. AMPK is an enzyme involved in fatty acid oxidation, inhibition of adipocyte differentiation, etc. It is involved in inhibition of fatty acid biosynthesis and fatty acid degradation by phosphorylating (inactivating) ACC through AMPK phosphorylation (p-AMPK). FAS (fatty acid synthase) plays a role of promoting fatty acid synthesis.

[2] = tested on: fat accumulation; test: Effect of saponins of the fermented extract on fat accumulation (FIG. 3); conditions: as compared to a control group
Excerpt: The effect of the saponins of the extract of fermented Gynostemma pentaphyllum according to the present disclosure on fat accumulation was investigated.

[3] = tested on: FAS (fatty acid synthase); test: Effect of saponins of the extract on FAS expression in 3T3-L1 cells; conditions: FIG. 1 and FIG. 2
Excerpt: as §1

[4] = tested on: AMPK; test: Effect of saponins of the extract on activity of AMPK in 3T3-L1 cells (p-AMPK); conditions: FIG. 1 and FIG. 2
Excerpt: as §1

SMILES | activation of p-ACC [1] | inhibition of fat accumulation [2] | expression of FAS (fatty acid synthase) [3] | activation of p-AMPK [4]
CC(C)=CCC[C@](C)(O)[C@H]1CC[C@]2(C)[C@@H]1[C@H](O)C[C@@H]1[C@@]3(C)CC[C@H](O[C@@H]4O[C@H](CO)[C@@H](O)[C@H](O)[C@H]4O[C@@H]4O[C@H](CO)[C@@H](O)[C@H](O)[C@H]4O)C(C)(C)[C@@H]3CC[C@]12C [ginsenoside Rg3] | activated p-AMPK and p-ACC in a concentration-dependent manner | exhibited an effect of inhibiting fat accumulation | inhibiting the expression of FAS | activated p-AMPK and p-ACC in a concentration-dependent manner
CC(C)=CCC[C@@](C)(O)[C@H]1CC[C@]2(C)[C@@H]1[C@H](O)C[C@@H]1[C@@]3(C)C[C@@H](O)[C@H](O[C@@H]4O[C@H](CO)[C@@H](O)[C@H](O)[C@H]4O[C@@H]4O[C@H](CO)[C@@H](O)[C@H](O)[C@H]4O)C(C)(C)[C@@H]3CC[C@]12C [gypenoside LI] | activated p-AMPK and p-ACC in a concentration-dependent manner | exhibited an effect of inhibiting fat accumulation | inhibiting the expression of FAS | activated p-AMPK and p-ACC in a concentration-dependent manner
CC(C)=CCC[C@](C)(O)[C@H]1CC[C@]2(C)[C@@H]1[C@H](O)C[C@@H]1[C@@]3(C)C[C@@H](O)[C@H](O[C@@H]4O[C@H](CO)[C@@H](O)[C@H](O)[C@H]4O[C@@H]4O[C@H](CO)[C@@H](O)[C@H](O)[C@H]4O)C(C)(C)[C@@H]3CC[C@]12C [gypenoside L] | – | exhibited an effect of inhibiting fat accumulation | – | –
